For one experiment, the target named is T1, MCR-1 (Homo sapiens, UniProt Q01726).
T1 construct: expressed in transfected cells; host or cells: HEK 293
Description: Melanocortin receptor binding assay, competition with 125I-HP 467, HEK 293 cells expressing hMCR-1. Conditions: inhibition of binding of 125I-HP 467, HEK 293 cells expressing MCR-1, TRG 2414 library; for IC50: read-out: MC-1 IC50. An outline of the steps:
(§1)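 Intact-cell competition binding, 2.5 hr at 37 °C, in PBS/10% calf serum/1 mM CaCl2; hMCR-4 cells at 4×10^3 per tube, hMCR-1 cells at 2×10^4 per tube. Filtration on BSA/CaCl2-soaked GF/B, cold 50 mM Tris pH 7.4 washes, scintillation count.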

For a further experiment, the target named is T2, MCR-4 (Homo sapiens, UniProt P32245).
T2 construct: expressed in transfected cells; host or cells: HEK 293
The experiment is described as follows: Melanocortin receptor binding assay, competition with 125I-HP 467, HEK 293 cells expressing hMCR-4. Conditions: inhibition of binding of 125I-HP 467, HEK 293 cells expressing MCR-4, TRG 2414 library; for IC50: read-out: MC-4 IC50. An outline of the steps: as §1

Structures are written as SMILES.

T2 sequence (P32245 whole entry): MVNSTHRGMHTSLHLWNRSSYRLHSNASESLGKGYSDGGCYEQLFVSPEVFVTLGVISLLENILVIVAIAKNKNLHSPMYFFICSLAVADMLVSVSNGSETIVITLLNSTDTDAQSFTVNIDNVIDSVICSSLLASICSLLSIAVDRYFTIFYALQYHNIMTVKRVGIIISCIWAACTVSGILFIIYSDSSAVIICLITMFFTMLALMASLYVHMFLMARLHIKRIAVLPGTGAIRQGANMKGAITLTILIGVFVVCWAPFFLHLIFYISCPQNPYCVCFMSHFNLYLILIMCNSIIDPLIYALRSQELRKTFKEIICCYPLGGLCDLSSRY
T1 sequence (Q01726 whole entry): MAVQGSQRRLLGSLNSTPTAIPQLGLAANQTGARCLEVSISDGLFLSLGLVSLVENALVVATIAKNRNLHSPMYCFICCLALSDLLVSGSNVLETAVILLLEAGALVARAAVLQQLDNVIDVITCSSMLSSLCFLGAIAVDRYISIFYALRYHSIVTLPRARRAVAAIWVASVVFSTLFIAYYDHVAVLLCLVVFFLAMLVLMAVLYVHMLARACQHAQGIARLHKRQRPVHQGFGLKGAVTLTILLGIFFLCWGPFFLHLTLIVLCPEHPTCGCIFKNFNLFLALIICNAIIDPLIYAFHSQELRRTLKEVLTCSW

Turning to `NCC(N)CCCCN1Cc2ccccc2C(CNC2CCCCC2)C1c1cc(C(F)(F)F)cc(C(F)(F)F)c1` (stereo not shown) [TRG 2414-77], the IC50 at MCR-1 turned out to be 3.86 µM; on MCR-4, 0.63 µM.
On to `NCC(CCCCN1Cc2ccccc2C(CNC2CCCCC2)C1c1cc(C(F)(F)F)cc(C(F)(F)F)c1)NCCc1ccccc1` (stereo not shown) [TRG 2414-78], for which the IC50 was 6.28 µM on MCR-1 and 4.26 µM on MCR-4.
`NCC(CCCCN1Cc2ccccc2C(CNC2CCCCC2)C1c1cc(C(F)(F)F)cc(C(F)(F)F)c1)NCc1ccccc1` (stereo not shown) [TRG 2414-79]: the values for the IC50 on MCR-1 and on MCR-4 were 10.4 µM and 4.99 µM, respectively.
As to `CC(C)Cc1ccc(C(C)CNC(CN)CCCCN2Cc3ccccc3C(CNC3CCCCC3)C2c2cc(C(F)(F)F)cc(C(F)(F)F)c2)cc1` (stereo not shown) [TRG 2414-80], the half-maximal inhibitory concentration (IC50) on MCR-1 turned out to be 23.7 µM; on MCR-4 it was 27 µM.
Turning to `NCC(CCCCN1Cc2ccccc2C(CNCc2ccccc2C(F)(F)F)C1c1cccc(Oc2ccccc2)c1)NCc1ccccc1` (stereo not shown) [TRG 2414-83], on MCR-1, the IC50 was determined as 31.5 µM. Moreover, the “MC-4 IC50” value on MCR-4 is recorded as “no fit”.
Take `CC(C)Cc1ccc(C(C)CN[C@H](CN)CCCCN2Cc3ccccc3C(CNCc3ccccc3C(F)(F)F)C2c2cccc(Oc3ccccc3)c2)cc1` (stereo partly shown) [TRG 2414-84]: on MCR-1, the “MC-1 IC50” value is “no fit”. The “MC-4 IC50” value at MCR-4 is “no fit”.
Turning to `CCOc1ccccc1CNCC1c2ccccc2CN(CCCCC(CN)NCCc2ccccc2)C1c1cccc(Oc2ccccc2)c1` (stereo not shown) [TRG 2414-86], the concentration for half-maximal inhibition (IC50) worked out at 11.8 µM on MCR-1 and 16.2 µM at MCR-4.
Turning to `CCOc1ccccc1CNCC1c2ccccc2CN(CCCCC(CN)NCc2ccccc2)C1c1cccc(Oc2ccccc2)c1` (stereo not shown) [TRG 2414-87], the IC50 at MCR-1 was 6.65 µM; on MCR-4, 11.2 µM.
With `CCOc1ccccc1CNCC1c2ccccc2CN(CCCCC(CN)NCC(C)c2ccc(CC(C)C)cc2)C1c1cccc(Oc2ccccc2)c1` (stereo not shown) [TRG 2414-88], the IC50 at MCR-1 is 36.5 µM. Besides, the “MC-4 IC50” value on MCR-4 was “no fit”.
With `COc1ccccc1CCNCC1c2ccccc2CN(CCCCC(N)CN)C1c1cccc(Oc2ccccc2)c1` (stereo not shown) [TRG 2414-89], the IC50 on MCR-1 worked out at 1.26 µM; on MCR-4 it was 0.73 µM.
As for `COc1ccccc1CCNCC1c2ccccc2CN(CCCCC(CN)NCCc2ccccc2)C1c1cccc(Oc2ccccc2)c1` (stereo not shown) [TRG 2414-90], the results for the IC50 at MCR-1 and on MCR-4 were 3.52 µM and 4.06 µM, respectively.
`COc1ccccc1CCNCC1c2ccccc2CN(CCCCC(CN)NCc2ccccc2)C1c1cccc(Oc2ccccc2)c1` (stereo not shown) [TRG 2414-91]: the IC50 came to 3.21 µM on MCR-1 and 2.74 µM on MCR-4.
For the compound `NCC(N)CCCCN1Cc2ccccc2C(CNCCc2cccc(Cl)c2)C1c1cccc(Oc2ccccc2)c1` (stereo not shown) [TRG 2414-93], the IC50 on MCR-1 came to 6.3 µM; on MCR-4, 3.8 µM.
As to `NCC(CCCCN1Cc2ccccc2C(CNCCc2cccc(Cl)c2)C1c1cccc(Oc2ccccc2)c1)NCCc1ccccc1` (stereo not shown) [TRG 2414-94], the IC50 at MCR-1 was determined as 16.9 µM; on MCR-4, 8.2 µM.
Regarding `NCC(CCCCN1Cc2ccccc2C(CNCCc2cccc(Cl)c2)C1c1cccc(Oc2ccccc2)c1)NCc1ccccc1` (stereo not shown) [TRG 2414-95], the IC50 at MCR-1 was 8.66 µM; at MCR-4, 5.26 µM.
On to `CC(C)Cc1ccc(C(C)CNC(CN)CCCCN2Cc3ccccc3C(CNCCc3cccc(Cl)c3)C2c2cccc(Oc3ccccc3)c2)cc1` (stereo not shown) [TRG 2414-96], for which, on MCR-1, the “MC-1 IC50” value is “no fit”. Also, the IC50 at MCR-4 came to 50.6 µM.
On to `COc1cccc(CNCC2c3ccccc3CN(CCCCC(CN)NCc3ccccc3)C2c2cccc(Oc3ccccc3)c2)c1` (stereo not shown) [TRG 2414-99], for which the half-maximal inhibitory concentration (IC50) is 5.86 µM on MCR-1 and 6.93 µM on MCR-4.
For the compound `COc1cccc(CNCC2c3ccccc3CN(CCCCC(CN)NCC(C)c3ccc(CC(C)C)cc3)C2c2cccc(Oc3ccccc3)c2)c1` (stereo not shown) [TRG 2414-100], at MCR-1, the “MC-1 IC50” value is given as “no fit”. Further, on MCR-4, the “MC-4 IC50” value is “no fit”.
With `COc1ccc(CNCC2c3ccccc3CN(CCCCC(N)CN)C2c2cccc(Oc3ccccc3)c2)cc1` (stereo not shown) [TRG 2414-101], the IC50 on MCR-1 amounted to 2.5 µM; at MCR-4, 1.26 µM.
Take `COc1ccc(CNCC2c3ccccc3CN(CCCCC(CN)NCCc3ccccc3)C2c2cccc(Oc3ccccc3)c2)cc1` (stereo not shown) [TRG 2414-102]: the IC50 on MCR-1 stood at 12.2 µM; on MCR-4, 6.91 µM.
On to `COc1ccc(CNCC2c3ccccc3CN(CCCCC(CN)NCC(C)c3ccc(CC(C)C)cc3)C2c2cccc(Oc3ccccc3)c2)cc1` (stereo not shown) [TRG 2414-104], for which the “MC-1 IC50” value at MCR-1 is recorded as “no fit”. Besides, the 50% inhibitory concentration (IC50) at MCR-4 stood at 46.2 µM.
With `COc1ccc(CCNCC2c3ccccc3CN(CCCCC(N)CN)C2c2cccc(Oc3ccccc3)c2)cc1` (stereo not shown) [TRG 2414-105], the figures for the IC50 on MCR-1 and at MCR-4 were 3.71 µM and 2.68 µM, respectively.
Consider `COc1ccc(CCNCC2c3ccccc3CN(CCCCC(CN)NCCc3ccccc3)C2c2cccc(Oc3ccccc3)c2)cc1` (stereo not shown) [TRG 2414-106], for which the IC50 at MCR-1 stood at 12.9 µM; at MCR-4, 10 µM.
Regarding `COc1ccc(CCNCC2c3ccccc3CN(CCCCC(CN)NCc3ccccc3)C2c2cccc(Oc3ccccc3)c2)cc1` (stereo not shown) [TRG 2414-107], the IC50 at MCR-1 stood at 6.55 µM; on MCR-4, 8.21 µM.
Turning to `COc1ccc(CCNCC2c3ccccc3CN(CCCCC(CN)NCC(C)c3ccc(CC(C)C)cc3)C2c2cccc(Oc3ccccc3)c2)cc1` (stereo not shown) [TRG 2414-108], the “MC-1 IC50” value at MCR-1 was “no fit”. Besides, the IC50 at MCR-4 was found to be 49.2 µM.
For the compound `NCC(N)CCCCN1Cc2ccccc2C(CNCc2ccccc2)C1c1cccc(Oc2ccccc2)c1` (stereo not shown) [TRG 2414-109], the half-inhibitory concentration (IC50) was found to be 3.06 µM on MCR-1 and 0.91 µM at MCR-4.
Consider `NCC(CCCCN1Cc2ccccc2C(CNCc2ccccc2)C1c1cccc(Oc2ccccc2)c1)NCCc1ccccc1` (stereo not shown) [TRG 2414-110], for which the IC50 at MCR-1 turned out to be 11.1 µM; at MCR-4, 10 µM.
In the case of `NCC(CCCCN1Cc2ccccc2C(CNCc2ccccc2)C1c1cccc(Oc2ccccc2)c1)NCc1ccccc1` (stereo not shown) [TRG 2414-111], the IC50 was 7.74 µM on MCR-1 and 13.1 µM on MCR-4.
Consider `CC(C)Cc1ccc(C(C)CNC(CN)CCCCN2Cc3ccccc3C(CNCc3ccccc3)C2c2cccc(Oc3ccccc3)c2)cc1` (stereo not shown) [TRG 2414-112], for which the “MC-1 IC50” value on MCR-1 is “no fit”. The IC50 at MCR-4 was 51.3 µM.
`NCC(N)CCCCN1Cc2ccccc2C(CNC2CCCCCC2)C1c1cccc(Oc2ccccc2)c1` (stereo not shown) [TRG 2414-113]: the IC50 at MCR-1 was 2.96 µM; on MCR-4, 1.78 µM.
In the same order, the values of `NCC(CCCCN1Cc2ccccc2C(CNC2CCCCCC2)C1c1cccc(Oc2ccccc2)c1)NCCc1ccccc1` (stereo not shown) [TRG 2414-114] are 8.96 µM and 4.83 µM.
For `NCC(CCCCN1Cc2ccccc2C(CNC2CCCCCC2)C1c1cccc(Oc2ccccc2)c1)NCc1ccccc1` (stereo not shown) [TRG 2414-115] the same measures were 3.71 µM and 5.6 µM.
Consider `CC(C)Cc1ccc(C(C)CNC(CN)CCCCN2Cc3ccccc3C(CNC3CCCCCC3)C2c2cccc(Oc3ccccc3)c2)cc1` (stereo not shown) [TRG 2414-116], for which, on MCR-1, the concentration for half-maximal inhibition (IC50) is 53.7 µM. Also, on MCR-4, the “MC-4 IC50” value is on record as “no fit”.
As to `NCC(N)CCCCN1Cc2ccccc2C(CNC2CCCCC2)C1c1cccc(Oc2ccccc2)c1` (stereo not shown) [TRG 2414-117], the IC50 at MCR-1 is 1.93 µM; at MCR-4, 1.27 µM.
For `NCC(CCCCN1Cc2ccccc2C(CNC2CCCCC2)C1c1cccc(Oc2ccccc2)c1)NCc1ccccc1` (stereo not shown) [TRG 2414-119] the same measures were 5.01 µM and 4.77 µM.
In the same order, the values of `CC(C)Cc1ccc(C(C)CNC(CN)CCCCN2Cc3ccccc3C(CNC3CCCCC3)C2c2cccc(Oc3ccccc3)c2)cc1` (stereo not shown) [TRG 2414-120] are 25 µM and 58.8 µM.
As to `NCC(N)CCCCN1Cc2ccccc2C(CNCc2ccccc2C(F)(F)F)C1c1ccc(Oc2ccccc2)cc1` (stereo not shown) [TRG 2414-121], the results for the IC50 at MCR-1 and at MCR-4 were 8.13 µM and 27.8 µM, respectively.
`NCC(CCCCN1Cc2ccccc2C(CNCc2ccccc2C(F)(F)F)C1c1ccc(Oc2ccccc2)cc1)NCCc1ccccc1` (stereo not shown) [TRG 2414-122]: the “MC-1 IC50” value at MCR-1 was “no fit”. On MCR-4, the IC50 was determined as 55.5 µM.
Take `NC[C@H](CCCCN1Cc2ccccc2C(CNCc2ccccc2C(F)(F)F)C1c1ccc(Oc2ccccc2)cc1)NCc1ccccc1` (stereo partly shown) [TRG 2414-123]: the half-inhibitory concentration (IC50) on MCR-1 was 17.6 µM. In addition, the “MC-4 IC50” value on MCR-4 is on record as “no fit”.
For `CC(C)Cc1ccc(C(C)CNC(CN)CCCCN2Cc3ccccc3C(CNCc3ccccc3C(F)(F)F)C2c2ccc(Oc3ccccc3)cc2)cc1` (stereo not shown) [TRG 2414-124], on MCR-1, the “MC-1 IC50” value is “no fit”. Further, the “MC-4 IC50” value on MCR-4 is “no fit”.
For `CCOc1ccccc1CNCC1c2ccccc2CN(CCCCC(N)CN)C1c1ccc(Oc2ccccc2)cc1` (stereo not shown) [TRG 2414-125], the IC50 on MCR-1 came out at 0.7 µM; on MCR-4 it was 8.08 µM.
In the case of `CCOc1ccccc1CNCC1c2ccccc2CN(CCCCC(CN)NCCc2ccccc2)C1c1ccc(Oc2ccccc2)cc1` (stereo not shown) [TRG 2414-126], the IC50 amounted to 6.43 µM on MCR-1 and 18.7 µM on MCR-4.
For `CCOc1ccccc1CNCC1c2ccccc2CN(CCCCC(CN)NCc2ccccc2)C1c1ccc(Oc2ccccc2)cc1` (stereo not shown) [TRG 2414-127] the same measures were 2.14 µM and 26.8 µM.
In the case of `COc1ccccc1CCNCC1c2ccccc2CN(CCCCC(CN)NCCc2ccccc2)C1c1ccc(Oc2ccccc2)cc1` (stereo not shown) [TRG 2414-130], the IC50 was 4.63 µM on MCR-1 and 13.4 µM on MCR-4.
For the compound `COc1ccccc1CCNCC1c2ccccc2CN(CCCCC(CN)NCc2ccccc2)C1c1ccc(Oc2ccccc2)cc1` (stereo not shown) [TRG 2414-131], the figures for the half-inhibitory concentration (IC50) on MCR-1 and at MCR-4 were 1.65 µM and 14.6 µM, respectively.
As to `COc1ccccc1CCNCC1c2ccccc2CN(CCCCC(CN)NCC(C)c2ccc(CC(C)C)cc2)C1c1ccc(Oc2ccccc2)cc1` (stereo not shown) [TRG 2414-132], the half-maximal inhibitory concentration (IC50) on MCR-1 worked out at 27.4 µM. Moreover, at MCR-4, the “MC-4 IC50” value was “no fit”.
Regarding `NCC(N)CCCCN1Cc2ccccc2C(CNCCc2cccc(Cl)c2)C1c1ccc(Oc2ccccc2)cc1` (stereo not shown) [TRG 2414-133], the figures for the IC50 on MCR-1 and at MCR-4 were 5.8 µM and 15.9 µM, respectively.

These data come from US6608082B1, “Treatment of erectile dysfunction using isoquinoline compound melanocortin receptor ligands” (Lion Bioscience AG, priority 1998, dated 2003).
